How the values were obtained:
PDGF-BB = PDGF-BB in HUVEC supernatants by ELISA; format: cell-based, human; conditions: vitronectin-coated dishes, 6 h to 72 h
Experimental: (§1) Since secreted biomarkers are relevant, the individual candidates were analysed in supernatants of integrin-inhibitor treated cells. HUVEC were treated either DI-17E6 or cilengitide. After different times, culture supernatants were collected and analysed for different biomarker candidates by Western blotting, ELISA or Luminex. Drug-induced biomarker regulation was evaluated in comparison to control cells.
Culture supernatants were collected analysed for PDGF-BB by ELISA. […] B) Regulation of PDFG-BB in response to cilengitide (FIG. 7).

MCP-1 = MCP-1 in HUVEC supernatants by Luminex; format: cell-based, human; conditions: vitronectin-coated dishes, 6 h to 72 h
Experimental: as §1
Culture supernatants were collected analysed for MCP-1 by Luminex. […] B) Regulation of MCP-1 in response to cilengitide (FIG. 5).

ADAMTS1 = ADAMTS1 protein in HUVEC supernatants by Western blotting; format: cell-based, human; conditions: vitronectin-coated dishes, 6 h to 72 h, vs control cells
Experimental: as §1
Culture supernatants were collected analysed for ADAMTS1 by Western blotting.
HUVECs were cultured o/n in vitronectin-coated dishes and incubated with different concentration of cilengitide for 6 h to 72 h. Culture supernatants were collected analysed for ADAMTS1 by Western blotting. A) Cilengitide mediated regulation of ADAMTS1 (65 kD and 85 kD). (FIG. 3).

STC-1 = STC-1 protein in HUVEC supernatants by Western blotting; format: cell-based, human; conditions: vitronectin-coated dishes
Experimental: as §1
Culture supernatants were collected analysed for STC-1 by Western blotting. […] B) Regulation of STC-1 in response to cilengitide (FIG. 4).
(§2) HUVECs were cultured o/n in vitronectin-coated dishes and incubated with different concentration of Sutent or Sorafenib for 6 h to 48 h. Culture supernatants were collected analysed for STC-1 by Western blotting. A) Regulation of STC-1 in response to Sutent. B) Regulation of STC-1 in response to Sorafenib (FIG. 10).

IL-8 = IL-8 in HUVEC supernatants by Luminex; format: cell-based, human; conditions: vitronectin-coated dishes
Experimental: as §1
Culture supernatants were collected analysed for IL-8 by Luminex. […] B) Regulation of IL-8 in response to cilengitide (FIG. 6).
as §2, with “IL-8” for “STC-1”, “Luminex.” for “Western blotting.”, “12).” for “10).”

ERK1/2 = assay: Western blot of integrin signalling in HUVEC plated on vitronectin: MAPK (ERK1/2); format: cell-based, human; conditions: for phosphorylation of MAPK: HUVEC, Western blot, following treatment
Experimental: (§3) To identify biomarkers associated with treatment, HUVEC were treated with cilengitide or DI-17E6. […] Gene expression profiles were generated from experiments with each condition being tested in triplicates. For this, RNA was extracted from treated and control cells and hybridized to genome-wide Affymetrix oligonucleotide microarrays to generate gene expression profiles. After preprocessing with the GCRMA algorithm (Wu Z, Journal American Statistical Association 2004; 99: 909-917), Affymetrix GeneChip data were filtered to exclude probe sets with low variability, low signal or poor probe annotation. Genes were specifically filtered to obtain secreted candidates that might be detectable in body fluids in humans and could be monitored in a non-invasive way in patients. […] Genes which show under the given condition an extraordinary response / response change/responsiveness are underlined.
(§4) Besides growth factor stimulation, integrin-mediated adhesion to the extracellular matrix is important to promote cell proliferation, survival, and migration. Upon integrin ligation a wide range of intracellular signaling events are induced, including activation of Ras, MAPK, FAK, Src, Rac/Rho/cdc42 GTPases. To support survival of endothelial cells during angiogenesis, integrins alpha(V) beta(3)/(5) together with FAK are required for a sustained activation of the MAPK cascade (i.e. ERK1/2). […] After 24 h of treatment, cell lysates were prepared and analysed by Western blotting. Effects on signaling pathways were evaluated by comparing the ratio of phosphorylated to total levels of the respective signaling molecule in order to account for potential effects arising from cell detachment.

HUVEC = assay: Gene expression profiles of HUVEC after drug treatment (Affymetrix microarrays); format: cell-based, human; conditions: drug-treated vs non-treated or control-treated cells, filtered for secreted candidates
Excerpt: Gene expression profiles were generated from experiments with each condition being tested in triplicates. For this, RNA was extracted from treated and control cells and hybridized to genome-wide Affymetrix oligonucleotide microarrays to generate gene expression profiles. After preprocessing with the GCRMA algorithm (Wu Z, Journal American Statistical Association 2004; 99: 909-917), Affymetrix GeneChip data were filtered to exclude probe sets with low variability, low signal or poor probe annotation. Genes were specifically filtered to obtain secreted candidates that might be detectable in body fluids in humans and could be monitored in a non-invasive way in patients.

EDN1 = EDN1 in HUVEC supernatants by ELISA; format: cell-based, human; conditions: vitronectin-coated dishes
Experimental: as §1
Culture supernatants were collected analysed for EDN1 by ELISA. […] B) Regulation of EDN1 in response to cilengitide (FIG. 8).
as §2, with “EDN1” for “STC-1”, “ELISA.” for “Western blotting.”, “11).” for “10).”

FAK = assay: Western blot of integrin signalling in HUVEC plated on vitronectin: FAK; format: cell-based, human; conditions: for phosphorylation of FAK: HUVEC, Western blot, following treatment
Experimental: as §3, §4

activin A = assay: Activin A in HUVEC supernatants by ELISA; format: cell-based, human; conditions: vitronectin-coated dishes, 6 h to 72 h
Experimental: as §1
Culture supernatants were collected analysed for activin A by ELISA. […] B) Regulation of activin A in response to cilengitide (FIG. 9).

[1] = system: Xenograft models of colon, breast, and non-small cell lung cancer (NSCLC); conditions: cited from earlier work
[2] = phase II trial; cited from earlier work
[3] = phase III, cytokine-refractory advanced renal carcinoma patients; cited from earlier work
[4] = system: angiogenesis in matrigel plugs; assay: bFGF-induced angiogenesis in matrigel plugs in monkeys (hemoglobin content); format: in vivo, Cynomolgus monkeys; conditions: single i.v. infusion at 100, 30, 10, or 3 mg/kg; after 6 days; 5 μg/mL bFGF
Experimental: In this model, angiogenesis was induced in matrigel plugs by the angiogenic growth factor bFGF. Matrigel plugs containing bFGF were implanted subcutan into the abdomen of healthy Cynomologus monkeys, and the animals were injected with DI-17E6 i.v. at different doses immediately thereafter. Evaluation of angiogenesis was carried out after matrigel implantation by quantification of the hemoglobin content in the matrigel plugs. Each condition was tested in different animals implanted with matrigel plugs.
Angiogenesis was induced in subcutaneous matrigel implants containing 5 μg/mL of bFGF in Cynomolgus monkeys. […] After 6 days, angiogenesis was quantified by measuring the hemoglobin content in the matrigel plugs. * denotes a p-value <0.05 and ** denotes a p-value <0.01 (FIG. 13).

IL-6 = assay: Plasma IL-6 by Luminex in monkeys with matrigel plugs; format: in vivo, Cynomolgus monkeys; conditions: DI-17E6-treated vs placebo-treated animals, 6 days
Excerpt: A) Regulation of CRP. B) Regulation of IL-6 (FIG. 14).

CRP = conditions: DI-17E6-treated vs placebo-treated animals, 6 days
Experimental: Absolute concentrations of different proteins were measured by Luminex by comparing to respective standards.
Plasma was collected and analysed for CRP and IL-6 by Luminex. A) Regulation of CRP. B) Regulation of IL-6 (FIG. 14).

[5] = integrin inhibitors, 24 h to 72 h
[6] = integrin inhibitors, 6 h to 72 h
[7] = HUVEC on vitronectin, 24 h, DI-17E6 0.01 to 10 μg/mL, cilengitide 0.01 to 10 μM

| Molecule | PDGF-BB level in HUVEC supernatants (PDGF-BB) | MCP-1 level in HUVEC supernatants (MCP-1) | ADAMTS1 protein level in HUVEC supernatants (ADAMTS1) | STC-1 protein level in HUVEC supernatants (STC-1; [5]) | IL-8 level in HUVEC supernatants (IL-8; [6]) | phosphorylation of MAPK (ERK1/2) | EDN1 level in HUVEC supernatants (EDN1; [6]) | phosphorylation of FAK (FAK) | Activin A level in HUVEC supernatants (activin A) | other results |
| --- | --- | --- | --- | --- | --- | --- | --- | --- | --- | --- |
| CC(C)[C@H]1C(=O)N[C@@H](CCCN=C(N)N)C(=O)NCC(=O)N[C@@H](CC(=O)O)C(=O)N[C@H](Cc2ccccc2)C(=O)N1C [cilengitide, cyclo-(Arg-Gly-Asp-DPhe-NMeVal)] | down-regulated | down-regulated | up-regulated | up-regulated | down-regulation | inhibited | down-regulated | inhibited | down-regulated | activation of ERK1/2 (ratio of phosphorylated to total) (ERK1/2; [7]): blocked activation; Genes down-regulated in response to treatment (RNA level) (HUVEC): INHBA, EDN1, FST, DKK4, BMP4, MCP1, HHIP, NTN4, PHLDB2, PVR, CYR61, AUTS2, MERTK, FSTL3, APLN, PTX3, ANGPTL4, CTGF, SPOCK, IL8, NRG1, DKK3, CD44, BCHE, BDNF, FBXO4, EFEMP1, STC2; Genes up-regulated in response to treatment (RNA level) (HUVEC): ADAMTS 9, DAF, STC1, ADAMTS1, LAMAS, TCN2, SRPX, ADAM15, GUSB, HYAL2, PLAUR, CD40, NOTCH1, ENPP4; activation of FAK (ratio of phosphorylated to total) (FAK; [7]): blocked activation |
| CNC(=O)c1cc(Oc2ccc(NC(=O)Nc3ccc(Cl)c(C(F)(F)F)c3)cc2)ccn1 [Sorafenib] | – | – | – | – | – | – | – | – | – | tumor angiogenesis, as measured by anti-CD31 immunostaining [1]: significant inhibition of tumor angiogenesis; STC-1 protein level in HUVEC supernatants (STC-1; kinase inhibitors, 6 h to 48 h): down-regulated; IL-8 level in HUVEC supernatants (IL-8; kinase inhibitors, 6 h to 48 h): reduced protein levels; additional patients who experienced tumor shrinkage [2]: 9%; patients who experienced stable disease for at least 4 months [2]: 43%; EDN1 level in HUVEC supernatants (EDN1; kinase inhibitors, 6 h to 48 h): up-regulated; side effect: diarrhea [3]: 33%; side effect: fatigue [3]: 26%; side effect: hand-foot skin reactions [3]: 27%; side effect: hypertension [3]: 11%; side effect: rash [3]: 34% |
| DI-17E6: antibody (CAS No: 1105038-73-0) having the biological characteristics of monoclonal mouse antibody 17E6, inhibits the αv-integrin subunit; improved immunogenicity (antibody, chains of the INN, looked up, V domains shown) VH: QVQLQQSGGELAKPGASVKVSCKASGYTFSSFWMHWVRQAPGQGLEWIGYINPRSGYTEYNEIFRDKATMTTDTSTSTAYMELSSLRSEDTAVYYCASFLGRGAMDYWGQGTTVTVSS VL: DIQMTQSPSSLSASVGDRVTITCRASQDISNYLAWYQQKPGKAPKLLIYYTSKIHSGVPSRFSGSGSGTDYTFTISSLQPEDIATYYCQQGNTFPYTFGQGTKVEIK | down-regulated | down-regulated | up-regulated | up-regulated | up-regulated | inhibited | down-regulated | inhibited | down-regulated | angiogenesis (hemoglobin content in the matrigel plugs) [4]: blocked the formation of new blood vessel at all doses; plasma IL-6 (IL-6): up-regulated; plasma CRP (CRP): up-regulated |
